Data reported in patent US9920032B2, “Heterocyclic compounds useful as pim kinase inhibitors” (Incyte Corporation, priority 2015, dated 2018).

Columns and labels:
Assay type in all cases: biochemical
Pim-1 = Pim-1 (Homo sapiens (Human), UniProt P11309); assay: Pim-1 kinase assay; details: 1 mM ATP; read-out: PIM1 IC50
Summary of the method: (§1)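 Biotin-BAD peptide (0.05 μM) phosphorylated with 1 mM ATP by 2.5 pM Pim-1 or 1.25 pM Pim-3 in Tris pH 7.5/MgCl2/DTT buffer, 1 h at 25° C. EDTA stop; phospho-BAD (Ser112) antibody with streptavidin donor and Protein-A acceptor beads, 1 h dark at room temperature before AlphaScreen-type bead read.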

Pim-3 = Pim-3 (Homo sapiens (Human), UniProt Q86V86); assay: Pim-3 kinase assay; details: 1 mM ATP; read-out: PIM3 IC50
Summary of the method: as §1

Pim-2 = Pim-2 (Homo sapiens (Human), UniProt Q9P1W9); assay: Pim-2 kinase assay; details: 1 mM ATP; read-out: PIM2 IC50
Pim-2, sequence (Q9P1W9 whole entry): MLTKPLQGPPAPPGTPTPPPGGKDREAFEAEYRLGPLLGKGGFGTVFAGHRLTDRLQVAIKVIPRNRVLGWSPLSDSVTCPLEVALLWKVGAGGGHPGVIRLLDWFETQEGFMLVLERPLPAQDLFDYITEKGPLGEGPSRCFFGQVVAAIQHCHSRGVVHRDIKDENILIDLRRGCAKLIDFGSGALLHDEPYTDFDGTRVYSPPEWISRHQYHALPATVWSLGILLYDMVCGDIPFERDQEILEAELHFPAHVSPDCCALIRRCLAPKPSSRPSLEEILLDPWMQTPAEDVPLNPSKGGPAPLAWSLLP
Summary of the method: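 TR-FRET assay with 1 nM enzyme, 0.05 μM fluorescein-CREBtide and 1 mM ATP in Tris pH 7.5 buffer with MgCl2, DTT, BSA and Tween-20, run 2 h at 25° C. Stopped with EDTA and Tb-labelled anti-CREB pSer133 antibody, then read after 30 min at room temperature.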

Pim-1, sequence (P11309 whole entry): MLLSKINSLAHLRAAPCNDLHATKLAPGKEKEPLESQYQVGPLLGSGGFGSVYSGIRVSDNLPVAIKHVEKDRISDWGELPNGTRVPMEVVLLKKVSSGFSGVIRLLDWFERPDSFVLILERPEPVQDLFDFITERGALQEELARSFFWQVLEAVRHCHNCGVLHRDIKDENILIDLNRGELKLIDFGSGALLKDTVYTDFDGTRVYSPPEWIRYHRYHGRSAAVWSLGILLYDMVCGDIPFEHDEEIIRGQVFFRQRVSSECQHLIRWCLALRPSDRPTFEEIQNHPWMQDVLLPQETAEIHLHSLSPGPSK

Compound	IC50 (Pim-1) [nM]	IC50 (Pim-3) [nM]	IC50 (Pim-2) [nM]
C[C@@H]1C[C@H](N)C[C@H](c2ccncc2NC(=O)c2ccc(F)c3cc(N4C[C@@H](O)C[C@@H]4C)cnc23)C1 [Example 165, N-(4-((1R,3S,5S)-3-Amino-5-methylcyclohexyl)pyridin-3-yl)-5-fluoro-3-((2S,4S)-4-hydroxy-2-methylpyrrolidin-1-yl)quinoline-8-carboxamide]	≤ 10	≤ 10	≤ 100
C[C@@H]1C[C@H](N)C[C@H](c2ccncc2NC(=O)c2ccc(F)c3cc(N4CCCN(C)C(=O)C4)cnc23)C1 [Example 135, N-(4-((1R,3S,5S)-3-Amino-5-methylcyclohexyl)pyridin-3-yl)-5-fluoro-3-(4-methyl-3-oxo-1,4-diazepan-1-yl)quinoline-8-carboxamide]	≤ 10	≤ 10	100 to 1000
C[C@@H]1C[C@H](N)C[C@H](c2ccncc2NC(=O)c2ccc(F)c3cc(N4CCN(C)CC4)cnc23)C1 [Example 30, N-{4-[(1R,3S,5S)-3-Amino-5-methylcyclohexyl]pyridin-3-yl}-5-fluoro-3-(4-methylpiperazin-1-yl)quinoline-8-carboxamide]	≤ 10	≤ 10	100 to 1000
C[C@@H]1C[C@H](N)C[C@H](c2ccncc2NC(=O)c2ccc(F)c3cc(N4C5CCC4COC5)cnc23)C1 [Example 77, N-(4-((1R,3S,5S)-3-Amino-5-methylcyclohexyl)pyridin-3-yl)-3-(3-oxa-8-azabicyclo[3.2.1]octan-8-yl)-5-fluoroquinoline-8-carboxamide]	≤ 10	≤ 10	≤ 100
CO[C@@H]1CCN(c2cnc3c(C(=O)Nc4cnccc4[C@@H]4C[C@H](C)C[C@H](N)C4)ccc(F)c3c2)C1 [Example 49, N-(4-((1R,3S,5S)-3-amino-5-methylcyclohexyl)pyridin-3-yl)-5-fluoro-3-((R)-3-methoxypyrrolidin-1-yl)quinoline-8-carboxamide]	≤ 10	≤ 10	100 to 1000
C[C@@H]1C[C@H](N)C[C@H](c2ccncc2NC(=O)c2ccc(F)c3cc(N4CCO[C@@H](C)C4)cnc23)C1 [Example 38, N-(4-((1R,3S,5S)-3-Amino-5-methylcyclohexyl)pyridin-3-yl)-5-fluoro-3-((S)-2-methylmorpholino)quinoline-8-carboxamide]	≤ 10	10 to 50	100 to 1000
COC[C@H]1CCCN1c1cnc2c(C(=O)Nc3cnccc3[C@@H]3C[C@H](C)C[C@H](N)C3)ccc(F)c2c1 [Example 47, N-(4-((1R,3S,5S)-3-Amino-5-methylcyclohexyl)pyridin-3-yl)-5-fluoro-3-OR)-2-(methoxymethyl)pyrrolidin-1-yl)quinoline-8-carboxamide]	≤ 10	≤ 10	≤ 100
C[C@@H]1C[C@H](N)C[C@H](c2ccncc2NC(=O)c2ccc(F)c3cc(N4CC5(CCOCC5)C4)cnc23)C1 [Example 121, N-(4-((1R,3S,5S)-3-Amino-5-methylcyclohexyl)pyridin-3-yl)-5-fluoro-3-(7-oxa-2-azaspiro[3.5]nonan-2-yl)quinoline-8-carboxamide]	≤ 10	≤ 10	≤ 100
Cc1ccc(N(C)c2cnc3c(C(=O)Nc4cnccc4[C@@H]4C[C@H](C)C[C@H](N)C4)ccc(F)c3c2)c(C)n1 [Example 141, N-(4-((1R,3S,5S)-3-Amino-5-methylcyclohexyl)pyridin-3-yl)-3-((2,6-dimethylpyridin-3-yl)(methyl)amino)-5-fluoroquinoline-8-carboxamide]	≤ 10	≤ 10	≤ 100
C[C@@H]1C[C@H](N)C[C@H](c2ccncc2NC(=O)c2ccc(F)c3cc(N4CC[C@H](F)C4)cnc23)C1 [Example 5, N-{4-[(1R,3S,5S)-3-Amino-5-methylcyclohexyl]pyridin-3-yl}-5-fluoro-3-[(3S)-3-fluoropyrrolidin-1-yl]quinoline-8-carboxamide]	≤ 10	≤ 10	≤ 100
CC(C)CN1CCN(c2cnc3c(C(=O)Nc4cnccc4[C@@H]4C[C@H](C)C[C@H](N)C4)ccc(F)c3c2)CC1=O [Example 117, N-(4-((1R,3S,5S)-3-Amino-5-methylcyclohexyl)pyridin-3-yl)-5-fluoro-3-(4-isobutyl-3-oxopiperazin-1-yl)quinoline-8-carboxamide]	≤ 10	≤ 10	≤ 100
C[C@@H]1C[C@H](N)C[C@H](c2ccncc2NC(=O)c2ccc(F)c3cc(N4CCCS4(=O)=O)cnc23)C1 [Example 138, N-(4-((1R,3S,5S)-3-Amino-5-methylcyclohexyl)pyridin-3-yl)-3-(1,1-dioxidoisothiazolidin-2-yl)-5-fluoroquinoline-8-carboxamide]	≤ 10	≤ 10	100 to 1000
C[C@@H]1C[C@H](N)C[C@H](c2ccncc2NC(=O)c2ccc(F)c3cc(N4CC5CCC4C5)cnc23)C1 (stereo partly drawn) [Example 96, N-(4-((1R,3S,5S)-3-Amino-5-methylcyclohexyl)pyridin-3-yl)-3-(2-azabicyclo[2.2.1]heptan-2-yl)-5-fluoroquinoline-8-carboxamide]	≤ 10	≤ 10	≤ 100
C[C@@H]1C[C@H](N)C[C@H](c2ccncc2NC(=O)c2ccc(F)c3cc(N4CCCC(F)(F)C4)cnc23)C1 [Example 28, N-{4-[(1R,3S,5S)-3-Amino-5-methylcyclohexyl]pyridin-3-yl}-3-(3,3-difluoropiperidin-1-yl)-5-fluoroquinoline-8-carboxamide]	≤ 10	≤ 10	≤ 100
C[C@@H]1C[C@H](N)C[C@H](c2ccncc2NC(=O)c2ccc(F)c3cc(N(C)C4CCCOC4)cnc23)C1 (stereo partly drawn) [Example 151]	≤ 10	≤ 10	≤ 100
CO[C@@H]1C[C@H](C)N(c2cnc3c(C(=O)Nc4cnccc4[C@@H]4C[C@H](C)C[C@H](N)C4)ccc(F)c3c2)C1 [Example 155, N-(4-((1R,3S,5S)-3-Amino-5-methylcyclohexyl]pyridin-3-yl}-5-fluoro-3-[(2S,4R)-4-methoxy-2-methylpyrrolidin-1-yl]quinoline-8-carboxamide]	≤ 10	≤ 10	≤ 100
CO[C@H]1CCN(c2cnc3c(C(=O)Nc4cnccc4[C@@H]4C[C@H](C)C[C@H](N)C4)ccc(F)c3c2)C1 [Example 50, N-(4-((1R,3S,5S)-3-Amino-5-methylcyclohexyl)pyridin-3-yl)-5-fluoro-3-((S)-3-methoxypyrrolidin-1-yl)quinoline-8-carboxamide]	≤ 10	≤ 10	≤ 100
CC(C)[C@H](C)Nc1cnc2c(C(=O)Nc3cnccc3[C@@H]3C[C@H](C)C[C@H](N)C3)ccc(F)c2c1 [Example 53, N-(4-((1R,3S,5S)-3-Amino-5-methylcyclohexyl)pyridin-3-yl)-5-fluoro-3-((S)-3-methylbutan-2-ylamino)quinoline-8-carboxamide]	≤ 10	≤ 10	100 to 1000
C[C@@H]1C[C@H](N)C[C@H](c2ccncc2NC(=O)c2ccc(F)c3cc(N4CCCC4=O)cnc23)C1 [Example 78, N-(4-((1R,3S,5S)-3-Amino-5-methylcyclohexyl)pyridin-3-yl)-5-fluoro-3-(2-oxopyrrolidin-1-yl)quinoline-8-carboxamide]	≤ 10	≤ 10	100 to 1000
C[C@@H]1C[C@H](N)C[C@H](c2ccncc2NC(=O)c2ccc(F)c3cc(N4CCCC[C@H]4C)cnc23)C1 [Example 169, N-(4-((1R,3S,5S)-3-Amino-5-methylcyclohexyl)pyridin-3-yl)-5-fluoro-3-((R)-2-methylpiperidin-1-yl)quinoline-8-carboxamide]	≤ 10	≤ 10	≤ 100
C[C@@H]1C[C@H](N)C[C@H](c2ccncc2NC(=O)c2ccc(F)c3cc(N4CCC(F)(F)CC4)cnc23)C1 [Example 40, N-(4-((1R,3S,5S)-3-Amino-5-methylcyclohexyl)pyridin-3-yl)-3-(4,4-difluoropiperidin-1-yl)-5-fluoroquinoline-8-carboxamide]	≤ 10	≤ 10	100 to 1000
C[C@@H]1C[C@H](N)C[C@H](c2ccncc2NC(=O)c2ccc(F)c3cc(N4CCC4)cnc23)C1 [Example 4, N-{4-[(1R,3S,5S)-3-Amino-5-methylcyclohexyl]pyridin-3-yl}-3-azetidin-1-yl-5-fluoroquinoline-8-carboxamide]	≤ 10	10 to 50	100 to 1000
COc1ccccc1N(C)c1cnc2c(C(=O)Nc3cnccc3[C@@H]3C[C@H](C)C[C@H](N)C3)ccc(F)c2c1 [Example 152, N-(4-((1R,3S,5S)-3-Amino-5-methylcyclohexyl)pyridin-3-yl)-5-fluoro-3-((2-methoxyphenyl)(methyl)amino)quinoline-8-carboxamide]	≤ 10	≤ 10	≤ 100
COCCN(C)c1cnc2c(C(=O)Nc3cnccc3[C@@H]3C[C@H](C)C[C@H](N)C3)ccc(F)c2c1 [Example 51, N-(4-((1R,3S,5S)-3-Amino-5-methylcyclohexyl)pyridin-3-yl)-5-fluoro-3-((2-methoxyethyl)(methyl)amino)quinoline-8-carboxamide]	≤ 10	≤ 10	100 to 1000
